Laboratory results as given in PubChem BioAssay AID328 (DTP/NCI, 2004).
“And” between values parts separate entries of the source, which are not always exact repeats. Equal entries are not always repeated. Inconclusive results and toxic doses are left out.

System: BDF1 mice, P388 leukemia ip, median survival T/C
Test: NCI In Vivo Anticancer Drug Screen. Data for tumor model P388 Leukemia (intraperitoneal) in B6D2F1 (BDF1) mice
Conditions: endpoint: median survival time, higher = longer survival
Outline: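 Compound-treated tumour-bearing mice were compared with vehicle-treated controls. Survival was recorded, and the value is the treated-group measurement divided by the control-group measurement (T/C).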

[1] = dose: 25.0 mg/kg/injection, schedule: Q04DX003 (ip), vehicle: Klucel (hydroxypropylcellulose) (HPC)
[2] = dose: 50.0 mg/kg/injection, schedule: Q04DX003 (ip), vehicle: Klucel (hydroxypropylcellulose) (HPC)
[3] = dose: 100.0 mg/kg/injection, schedule: Q04DX003 (ip), vehicle: Klucel (hydroxypropylcellulose) (HPC)
[4] = dose: 25.0 mg/kg/injection, schedule: Q01DX009 (ip), vehicle: saline
[5] = dose: 50.0 mg/kg/injection, schedule: Q01DX009 (ip), vehicle: saline
[6] = dose: 100.0 mg/kg/injection, schedule: Q01DX009 (ip), vehicle: saline
[7] = dose: 25.0 mg/kg/injection, schedule: Q04DX003 (ip), vehicle: saline
[8] = dose: 50.0 mg/kg/injection, schedule: Q01DX009 (ip), vehicle: saline with Tween-80
[9] = dose: 100.0 mg/kg/injection, schedule: Q01DX009 (ip), vehicle: saline with Tween-80
[10] = dose: 200.0 mg/kg/injection, schedule: Q01DX009 (ip), vehicle: saline with Tween-80
[11] = dose: 50.0 mg/kg/injection, schedule: Q04DX003 (ip), vehicle: saline
[12] = dose: 100.0 mg/kg/injection, schedule: Q04DX003 (ip), vehicle: saline
[13] = dose: 50.0 mg/kg/injection, schedule: Q04DX003 (ip), vehicle: saline sonified
[14] = dose: 200.0 mg/kg/injection, schedule: Q04DX003 (ip), vehicle: saline sonified

In the case of `COC(=O)c1ccc(-c2ccccc2)cc1`, the T/C [1] is reported as 98 % of control, the T/C [2] is reported as 95 % of control and the T/C [3] is reported as 94 % of control. For the same compound, the T/C (dose: 200.0 mg/kg/injection, schedule: Q04DX003 (ip), vehicle: Klucel (hydroxypropylcellulose) (HPC)) was 101 % of control and the T/C (dose: 400.0 mg/kg/injection, schedule: Q04DX003 (ip), vehicle: Klucel (hydroxypropylcellulose) (HPC)) was 100 % of control.

With `O=C(NC(COC(=O)C(Cc1ccccc1)NC(=O)c1ccccc1)Cc1ccccc1)c1ccccc1` (stereo unspecified) the T/C (dose: 4.0 mg/kg/injection, schedule: Q01DX009 (ip), vehicle: Klucel (hydroxypropylcellulose) (HPC)) was 102 % of control, the T/C (dose: 8.0 mg/kg/injection, schedule: Q01DX009 (ip), vehicle: Klucel (hydroxypropylcellulose) (HPC)) was 104 % of control and the T/C (dose: 16.0 mg/kg/injection, schedule: Q01DX009 (ip), vehicle: Klucel (hydroxypropylcellulose) (HPC)) was 93 % of control. For the same compound, the T/C (dose: 32.0 mg/kg/injection, schedule: Q01DX009 (ip), vehicle: Klucel (hydroxypropylcellulose) (HPC)) was 98 % of control.

`O=c1[nH]nnc2ccccc12` was tested, and the T/C [4] was 95 % of control, the T/C [1] was 100 % of control and the T/C (dose: 37.5 mg/kg/injection, schedule: Q04DX003 (ip), vehicle: Klucel (hydroxypropylcellulose) (HPC)) was 100 % of control. The T/C [5] was 95 % of control, the T/C [2] was 104 % of control and the T/C (dose: 75.0 mg/kg/injection, schedule: Q04DX003 (ip), vehicle: Klucel (hydroxypropylcellulose) (HPC)) was 95 % of control. The T/C [6] was 90 % of control, the T/C [3] was 100 % of control and the T/C (dose: 150.0 mg/kg/injection, schedule: Q01DX009 (ip), vehicle: Klucel (hydroxypropylcellulose) (HPC)) was 100 % of control. The T/C (dose: 150.0 mg/kg/injection, schedule: Q04DX003 (ip), vehicle: Klucel (hydroxypropylcellulose) (HPC)) was 109 % of control.

With `Cn1cnc([N+](=O)[O-])c1Sc1nc(N)nc2c1ncn2C1OC(CO)C(O)C1O` (stereo unspecified) the T/C (dose: 7.0 mg/kg/injection, schedule: Q04DX003 (ip), vehicle: saline) was 163 % of control, the T/C (dose: 7.03 mg/kg/injection, schedule: Q01DX009 (ip), vehicle: saline) was 120 % of control and the T/C (dose: 9.2 mg/kg/injection, schedule: Q01DX009 (ip), vehicle: saline) was 163 % of control. The T/C (dose: 14.06 mg/kg/injection, schedule: Q01DX009 (ip), vehicle: saline) was 163 % of control, the T/C (dose: 16.0 mg/kg/injection, schedule: Q04DX003 (ip), vehicle: saline) was 168 % of control and 172 % of control and the T/C (dose: 21.0 mg/kg/injection, schedule: Q01DX009 (ip), vehicle: saline) was 95 % of control. The T/C [7] was 161 % of control and 168 % of control, the T/C (dose: 56.25 mg/kg/injection, schedule: Q01DX009 (ip), vehicle: saline) was 100 % of control and the T/C (dose: 150.0 mg/kg/injection, schedule: Q04DX003 (ip), vehicle: saline) was 104 % of control and 113 % of control. For the same compound, the T/C (dose: 225.0 mg/kg/injection, schedule: Q04DX003 (ip), vehicle: saline) was 109 % of control and the T/C (dose: 335.0 mg/kg/injection, schedule: Q04DX003 (ip), vehicle: saline) was 109 % of control.

In the case of `Cc1cc(O)c2c(c1)C(=O)C=CC2=O`, the T/C (dose: 0.12 mg/kg/injection, schedule: Q01DX009 (ip), vehicle: other) is reported as 107 % of control, the T/C (dose: 0.25 mg/kg/injection, schedule: Q01DX009 (ip), vehicle: other) is reported as 101 % of control and the T/C (dose: 0.5 mg/kg/injection, schedule: Q01DX009 (ip), vehicle: other) is reported as 117 % of control. For the same compound, the T/C (dose: 0.54 mg/kg/injection, schedule: Q01DX009 (ip), vehicle: alcohol) was 120 % of control, the T/C (dose: 0.82 mg/kg/injection, schedule: Q01DX009 (ip), vehicle: alcohol) was 110 % of control and the T/C (dose: 1.0 mg/kg/injection, schedule: Q01DX009 (ip), vehicle: other) was 103 % of control. For the same compound, the T/C (dose: 1.25 mg/kg/injection, schedule: Q01DX009 (ip), vehicle: alcohol) was 106 % of control, the T/C (dose: 1.8 mg/kg/injection, schedule: Q01DX009 (ip), vehicle: alcohol) was 102 % of control and the T/C (dose: 2.0 mg/kg/injection, schedule: Q01DX009 (ip), vehicle: other) was 101 % of control. The T/C (dose: 2.5 mg/kg/injection, schedule: Q01DX009 (ip), vehicle: alcohol) was 121 % of control.

For `CC1=Nc2ccccc2C(=O)N(C)N1`, the T/C [8] was 100 % of control, the T/C [9] was 104 % of control and the T/C [10] was 97 % of control.

For `BrCc1cc2ccccc2cc1CBr`, the T/C [7] was 116 % of control.

In the case of `CC/C(=C\c1ccc(Cl)cc1)[N+](=O)[O-]`, the T/C (dose: 12.5 mg/kg/injection, schedule: Q01DX009 (ip), vehicle: saline) is reported as 97 % of control, the T/C [4] is reported as 99 % of control and the T/C [7] is reported as 87 % of control. The T/C [5] was 99 % of control, the T/C [11] was 104 % of control and the T/C [12] was 104 % of control and 109 % of control.

With `CN(C)C=Nc1ccccc1` the T/C (dose: 100.0 mg/kg/injection, schedule: Q01DX009 (ip), vehicle: Klucel (hydroxypropylcellulose) (HPC)) was 113 % of control, the T/C (dose: 200.0 mg/kg/injection, schedule: Q01DX009 (ip), vehicle: Klucel (hydroxypropylcellulose) (HPC)) was 95 % of control and the T/C (dose: 400.0 mg/kg/injection, schedule: Q01DX009 (ip), vehicle: Klucel (hydroxypropylcellulose) (HPC)) was 109 % of control.

In the case of `CC(=O)CC(C)=O.CC(=O)CC(C)=O.CC(=O)CC(C)=O.[Ga]`, the T/C [7] is reported as 100 % of control, the T/C [11] is reported as 95 % of control and the T/C [12] is reported as 86 % of control.

With `O=C(O)CCCCCCCC(=O)c1ccccc1` the T/C [13] was 100 % of control, the T/C (dose: 100.0 mg/kg/injection, schedule: Q04DX003 (ip), vehicle: saline sonified) was 104 % of control and the T/C [14] was 95 % of control.

With `CCC1=C(c2cc(Cl)c3ccccc3c2OCC(=O)O)OC(CC)(C(=O)c2cc(Cl)c3ccccc3c2OCC(=O)O)CC1` (stereo unspecified) the T/C (dose: 25.0 mg/kg/injection, schedule: Q01DX009 (ip), vehicle: saline with Tween-80) was 90 % of control, the T/C [8] was 95 % of control and the T/C [13] was 100 % of control. For the same compound, the T/C [9] was 115 % of control and the T/C [14] was 90 % of control.

With `CC1OC(OC2C(CO)OC(O[C@H]3CC[C@@]4(C)C(=CC[C@H]5[C@@H]6C[C@@H]7O[C@@]8(CC[C@H](C)CN8)[C@@H](C)[C@@H]7[C@@]6(C)CC[C@@H]54)C3)C(OC3OC(C)C(O)C(O)C3O)C2O)C(O)C(O)C1O` (stereo partly specified) the T/C (dose: 2.5 mg/kg/injection, schedule: Q01DX009 (ip), vehicle: water) was 95 % of control and 100 % of control, the T/C (dose: 5.0 mg/kg/injection, schedule: Q01DX009 (ip), vehicle: water) was 109 % of control and the T/C (dose: 10.0 mg/kg/injection, schedule: Q01DX009 (ip), vehicle: water) was 100 % of control and 104 % of control. The T/C (dose: 20.0 mg/kg/injection, schedule: Q01DX009 (ip), vehicle: water) was 95 % of control and 100 % of control.

For `O=c1c(N=Nc2ccccc2)c(O)n(-c2ccccc2)c(=S)n1-c1ccccc1`, the T/C (dose: 25.0 mg/kg/injection, schedule: Q01DX001 (ip), vehicle: saline with Tween-80) was 100 % of control, the T/C (dose: 50.0 mg/kg/injection, schedule: Q01DX001 (ip), vehicle: saline with Tween-80) was 90 % of control and the T/C (dose: 100.0 mg/kg/injection, schedule: Q01DX001 (ip), vehicle: saline with Tween-80) was 95 % of control.

`COc1cccc2c1C(=O)c1c(O)c3c(c(O)c1C2=O)C[C@@](O)(C(C)=O)C[C@@H]3OC(=O)CCN` was tested, and the T/C (dose: 1.56 mg/kg/injection, schedule: Q01DX009 (ip), vehicle: water) was 100 % of control and 123 % of control, the T/C (dose: 3.12 mg/kg/injection, schedule: Q01DX009 (ip), vehicle: water) was 93 % of control and the T/C (dose: 6.25 mg/kg/injection, schedule: Q01DX009 (ip), vehicle: water) was 169 % of control.

In the case of `CC[C@@H]1C[C@H]2CC3c4c(c5cc(OC)ccc5n4C)CCN(C2)C31`, the T/C [8] is reported as 102 % of control, the T/C [9] is reported as 105 % of control and the T/C [10] is reported as 102 % of control.

`COC(C)C(NC(=O)C1CCCN1C)C1OC(SCCOC(=O)c2ccccc2O)C(O)C(O)C1O` (stereo unspecified) was tested, and the T/C [5] was 100 % of control, the T/C [6] was 100 % of control and 101 % of control (2×) and the T/C (dose: 200.0 mg/kg/injection, schedule: Q01DX009 (ip), vehicle: saline) was 104 % of control.

`O=S(=O)(O)O.[Ga]` was tested, and the T/C (dose: 8.25 mg/kg/injection, schedule: Q01DX009 (ip), vehicle: saline sonified) was 100 % of control, the T/C (dose: 50.0 mg/kg/injection, schedule: Q04DX003 (ip), vehicle: saline with Tween-80) was 90 % of control and the T/C (dose: 100.0 mg/kg/injection, schedule: Q04DX003 (ip), vehicle: saline with Tween-80) was 95 % of control. The T/C (dose: 134.0 mg/kg/injection, schedule: Q04DX003 (ip), vehicle: saline with Tween-80) was 92 % of control, the T/C (dose: 200.0 mg/kg/injection, schedule: Q04DX003 (ip), vehicle: saline with Tween-80) was 123 % of control and the T/C (dose: 300.0 mg/kg/injection, schedule: Q04DX003 (ip), vehicle: saline with Tween-80) was 96 % of control.
